Data taken from patent US8546575B2, “NIP thiazole derivatives as inhibitors of 11-beta-hydroxysteroid dehydroge-nase-1” (Merck Patent GmbH, priority 2008, dated 2013).

Tests used:
mouse 11-β-HSD-1 = molecular target: T1, mouse 11-β-HSD-1 (Mus musculus, UniProt P50172); assay: Inhibition of 11-β-HSD-1 enzyme assay (HTRF Cortisol), mice liver microsome fractions; format: biochemical; settings: for remaining activity at 1 µM: read-out: Inhibition of mouse 11-β-HSD-1 % of control at 1 μM
T1 construct: either as microsome fractions from rat and mice liver (2.5 μg); tissue TEBU; host or cells: mouse liver microsome fractions
Description: (§1) Human recombinant 11-beta-hydroxysteroid dehydrogenase type 1 (11-β-HSD-1) enzyme was expressed in E. coli. Rat and mice liver microsome fractions were purchased from TEBU.
(§2) The 11-β-HSD-1 enzyme assay was carried out in 96 well microtiter plates in a total volume of 100 μl containing 30 mM Hepes buffer, pH 7.4 with 1 mM EDTA, substrate mixture cortisone/NADPH (200 nM/200 μM), G-6-P (1 mM) and inhibitors in serial dilutions. Reactions were initiated by addition of 10 μl 11-β-HSD-1 (3 μg) from E. coli, either as microsome fractions from rat and mice liver (2.5 μg). Following mixing, the plates were shaken for 150 minutes at 37° C. The reactions were terminated with 10 μl Acid-18beta Glycyrrhetinic stop solution. Determinations of Cortisol levels in 11-β-HSD-1 preparations were monitored by HTRF (HTRF Cortisol assay from Cis bio international).
(§3) Activity is expressed in % of control or concentration to inhibit 50% of the enzyme activity (IC50) (table 6).

human 11-β-HSD-1 = molecular target: T2, human 11-β-HSD-1 (Homo sapiens, UniProt P28845); assay: Inhibition of 11-β-HSD-1 enzyme assay (HTRF Cortisol), human recombinant enzyme; format: biochemical; settings: for IC50: human recombinant enzyme from E. coli, cortisone/NADPH 200 nM/200 μM
T2 construct: made in house; host or cells: E. coli
Description: as §1, §2, §3

normal patients = settings: cited from earlier work
humans = settings: cited from earlier work

T1 sequence (P50172 whole entry): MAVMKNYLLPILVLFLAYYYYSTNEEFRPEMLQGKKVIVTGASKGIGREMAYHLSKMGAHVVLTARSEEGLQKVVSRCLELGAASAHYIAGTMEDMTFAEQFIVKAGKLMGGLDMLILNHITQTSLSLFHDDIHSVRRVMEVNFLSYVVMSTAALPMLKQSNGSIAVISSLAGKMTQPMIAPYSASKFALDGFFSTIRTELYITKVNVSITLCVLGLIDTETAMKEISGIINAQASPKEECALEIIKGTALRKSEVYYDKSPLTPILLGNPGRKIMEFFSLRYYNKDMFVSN
T2 sequence (P28845 whole entry): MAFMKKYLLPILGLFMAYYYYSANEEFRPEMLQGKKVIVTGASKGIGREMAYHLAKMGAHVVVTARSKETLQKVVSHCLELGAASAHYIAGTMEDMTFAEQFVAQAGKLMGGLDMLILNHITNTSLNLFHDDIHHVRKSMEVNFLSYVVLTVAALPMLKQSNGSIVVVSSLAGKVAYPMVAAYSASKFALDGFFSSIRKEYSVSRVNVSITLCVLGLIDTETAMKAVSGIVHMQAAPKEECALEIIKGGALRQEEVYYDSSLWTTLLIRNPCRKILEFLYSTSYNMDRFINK

Row | IC50 (mouse 11-β-HSD-1) | IC50 (human 11-β-HSD-1) | SMILES | also measured
1 | 290 nM | 1200 nM | O=C(c1csc(C2CCNCC2)n1)N(C1CCCCC1)C1CC1 [Compound 1.1, 2-Piperidin-4-yl-thiazole-4-carboxylic acid cyclohexyl-cyclopropyl-amide] | 
2 |  |  | O=C(c1csc(C2CCNCC2)n1)N1CCCC2CCCCC21 (stereo not shown) [Compound 1.2, (Octahydro-quinolin-1-yl)-(2-piperidin-4-yl-thiazol-4-yl)-methanone] | remaining activity at 1 µM (human 11-β-HSD-1; at 1 μM, human recombinant enzyme, read-out: Inhibition of human 11-β-HSD-1 % of control at 1 μM): 27%
3 |  | 92 nM | CC(C)(C)CC(=O)N1CCC(c2nc(C(=O)N3CCCC4CCCCC43)cs2)CC1 (stereo not shown) [Compound 2.1, 3,3-Dimethyl-1-{4-[4-(octahydro-quinoline-1-carbonyl)-thiazol-2-yl]-piperidin-1-yl}-butan-1-one] | remaining activity at 1 µM (mouse 11-β-HSD-1): 51%
4 | 630 nM | 420 nM | O=C(CCC1CCCC1)N1CCC(c2nc(C(=O)N(C3CCCCC3)C3CC3)cs2)CC1 [Compound 2.7, 2-[1-(3-Cyclopentyl-propionyl)-piperidin-4-yl]-thiazole-4-carboxylic acid cyclohexyl-cyclopropyl-amide] | 
5 | 340 nM | 200 nM | O=C(C1CCCCC1)N1CCC(c2nc(C(=O)N3CCCC4CCCCC43)cs2)CC1 (stereo not shown) [Compound 2.17, [2-(1-Cyclohexanecarbonyl-piperidin-4-yl)-thiazol-4-yl]-(octahydro-quinolin-1-yl)-methanone] | 
6 | 490 nM | 130 nM | O=C(C1CCCC1)N1CCC(c2nc(C(=O)N3CCCC4CCCCC43)cs2)CC1 (stereo not shown) [Compound 2.18, [2-(1-Cyclopentanecarbonyl-piperidin-4-yl)-thiazol-4-yl]-(octahydro-quinolin-1-yl)-methanone] | 
7 | 470 nM | 270 nM | CCC(C)NC(=O)N1CCC(c2nc(C(=O)N3CCCC4CCCCC43)cs2)CC1 (stereo not shown) [Compound 3.1, 4-[4-(Octahydro-quinoline-1-carbonyl)-thiazol-2-yl]-piperidine-1-carboxylic acid sec-butylamide] | 
8 | 59 nM | 340 nM | CCCCCNC(=O)N1CCC(c2nc(C(=O)N3CCCC4CCCCC43)cs2)CC1 (stereo not shown) [Compound 3.7, 4-[4-(Octahydro-quinoline-1-carbonyl)-thiazol-2-yl]-piperidine-1-carboxylic acid pentylamide] | 
9 | 500 nM | 53 nM | COc1ccc(CNC(=O)N2CCC(c3nc(C(=O)N4CCCC5CCCCC54)cs3)CC2)cc1 (stereo not shown) [Compound 3.22, 4-[4-(Octahydro-quinoline-1-carbonyl)-thiazol-2-yl]-piperidine-1-carboxylic acid 4-methoxy-benzylamide] | 
10 | 330 nM | 32 nM | O=C(c1csc(C2CCN(S(=O)(=O)C(F)(F)F)CC2)n1)N1CCCC2CCCCC21 (stereo not shown) [Compound 4.1, (Octahydro-quinolin-1-yl)-[2-(1-trifluoromethanesulfonyl-piperidin-4-yl)-thiazol-4-yl]-methanone] | 
11 | 210 nM | 93 nM | CCCCS(=O)(=O)N1CCC(c2nc(C(=O)N3CCCC4CCCCC43)cs2)CC1 (stereo not shown) [Compound 4.2, {2-[1-(Butane-1-sulfonyl)-piperidin-4-yl]-thiazol-4-yl}-(octahydro-quinolin-1-yl)-methanone] | 
12 |  | 720 nM | O=C(c1csc(C2CCN(S(=O)(=O)c3cccs3)CC2)n1)N(C1CCCCC1)C1CC1 [Compound 4.11, 2-[1-(Thiophene-2-sulfonyl)-piperidin-4-yl]-thiazole-4-carboxylic acid cyclohexyl-cyclopropyl-amide] | 
13 |  | 1000 nM | O=C(c1csc(C2CCN(S(=O)(=O)CCc3ccncc3)CC2)n1)N(C1CCCCC1)C1CC1 [Compound 4.18, 2-[1-(2-Pyridin-4-yl-ethanesulfonyl)-piperidin-4-yl]-thiazole-4-carboxylic acid cyclohexyl-cyclopropyl-amide] | remaining activity at 1 µM (mouse 11-β-HSD-1): 49%
14 | 1000 nM | 280 nM | COc1ccc(S(=O)(=O)N2CCC(c3nc(C(=O)N(C4CCCCC4)C4CC4)cs3)CC2)cc1 [Compound 4.20, 2-[1-(4-Methoxy-benzenesulfonyl)-piperidin-4-yl]-thiazole-4-carboxylic acid cyclohexyl-cyclopropyl-amide] | 
15 |  |  | CC1(C)[C@@H](OC(=O)CCC(=O)O)CC[C@]2(C)[C@H]3C(=O)C=C4[C@@H]5C[C@@](C)(C(=O)O)CC[C@]5(C)CC[C@@]4(C)[C@]3(C)CC[C@@H]12 [carbenoxolone] | reduction of the intraocular pressure (normal patients): 20%; hepatic insulin sensitivity (humans): improved hepatic insulin sensitivity
